Data published in patent US9376392B2, “2-(tert-butoxy)-2-(7-methylquinolin-6-yl) acetic acid derivatives for treating AIDS” (Gilead Sciences, Inc., priority 2012, dated 2016).

These compounds were tested on HIV-IIIb (MT-4 cells) (assay: Test A: Antiviral Assays in MT4 Cells). Details: MT4, 120 h, MT-4 cells infected with HIV-IIIb, 5 days of incubation, CellTiter-Glo readout.
Type: cell-based
Protocol: The antiviral properties of a compound disclosed herein may be determined using Test A described below.
Test A: Antiviral Assays in MT4 Cells
For the antiviral assay utilizing MT-4 cells, 0.4 μL of […] test concentration of 3-fold serially diluted compound in DMSO was added to 40 μL of cell growth medium (RPMI 1640, 10% FBS, 1% penicillin/Streptomycin, 1% L-Glutamine, 1% HEPES) in each well of 384-well assay plates (10 concentrations) in quadruplicate.
1 mL aliquots of 2×10e6 MT-4 cells are pre-infected for 1 and 3 hrs respectively, @ 37° C. with 25 μL (MT4) or of either cell growth medium (mock-infected) or a fresh 1:250 dilution of an HIV-IIIb concentrated ABI stock (0.004 m.o.i. for MT4 cells). Infected and uninfected cells are diluted in cell growth medium and 35 μL of 2000 (for MT4) cells is added to each well of the assay plates.
Assay plates were then incubated in a 37° C. incubator. After 5 days of incubation, […] 2× concentrated CellTiter-Glo™ Reagent (catalog #G7573, Promega Biosciences, Inc., Madison, Wis.) was added to each well of the assay plate. Cell lysis was carried out by incubating at room temperature for 2-3 min and then chemiluminescence was read using the Envision reader (PerkinElmer).
Work on `Cc1cc2c(ccc(=O)n2Cc2ccncc2)c(-c2ccc3c4c(ccnc24)CCO3)c1[C@H](OC(C)(C)C)C(=O)O` (atropisomer, axis not shown) [Example 21, (S)-2-tert-Butoxy-2-((R)-5-(2,3-dihydropyrano[4,3,2-de]quinolin-7-yl)-7-methyl-2-oxo-1-(pyridin-4-ylmethyl)-1,2-dihydroquinolin-6-yl)acetic acid] yielded an EC50 of 0.755 µM. `Cc1cc2nc(OCc3ccc(OC(F)(F)F)cc3)ccc2c(-c2ccc3c4c(ccnc24)CCO3)c1[C@H](OC(C)(C)C)C(=O)O` (atropisomer, axis not shown) [Example 13, (S)-2-tert-Butoxy-2-((R)-5-(2,3-dihydropyrano[4,3,2-de]quinolin-7-yl)-7-methyl-2-(4-(trifluoromethoxy)benzyloxy)quinolin-6-yl)acetic acid] gave an EC50 of 0.285 µM. Work on `Cc1cc2c(ccc(=O)n2Cc2ccc(Oc3ccccc3)cc2)c(-c2ccc3c4c(ccnc24)CCO3)c1[C@H](OC(C)(C)C)C(=O)O` (atropisomer, axis not shown) [Example 32, (S)-2-tert-Butoxy-2-((R)-5-(2,3-dihydropyrano[4,3,2-de]quinolin-7-yl)-7-methyl-2-oxo-1-(4-phenoxybenzyl)-1,2-dihydroquinolin-6-yl)acetic acid] yielded an EC50 of 3.06 µM. Compound `Cc1cc2nc(N)ccc2c(-c2ccc3c4c(ccnc24)CCO3)c1[C@H](OC(C)(C)C)C(=O)O` (atropisomer, axis not shown) [Example 47, (S)-2-((R)-2-Amino-5-(2,3-dihydropyrano[4,3,2-de]quinolin-7-yl)-7-methylquinolin-6-yl)-2-tert-butoxyacetic acid] has an EC50 of 0.292 µM. For `Cc1cc2nc(OCc3ccccc3OC(F)(F)F)ccc2c(-c2ccc3c4c(ccnc24)CCO3)c1[C@H](OC(C)(C)C)C(=O)O` (atropisomer, axis not shown) [Example 19, (S)-2-tert-Butoxy-2-((R)-5-(2,3-dihydropyrano[4,3,2-de]quinolin-7-yl)-7-methyl-2-(2-(trifluoromethoxy)benzyloxy)quinolin-6-yl)acetic acid], the EC50 was 0.07 µM. `Cc1cc2nc(NC(=O)c3ccccc3)ccc2c(-c2ccc3c4c(ccnc24)CCO3)c1[C@H](OC(C)(C)C)C(=O)O` (atropisomer, axis not shown) [Example 49, (S)-2-((R)-2-Benzamido-5-(2,3-dihydropyrano[4,3,2-de]quinolin-7-yl)-7-methylquinolin-6-yl)-2-tert-butoxyacetic acid] showed an EC50 of 0.134 µM. For `Cc1cc2nc(C(C)(C)O)ccc2c(-c2ccc3c4c(ccnc24)CCO3)c1[C@H](OC(C)(C)C)C(=O)O` (atropisomer, axis not shown) [Example 51, (S)-2-tert-Butoxy-2-((R)-5-(2,3-dihydropyrano[4,3,2-de]quinolin-7-yl)-2-(2-hydroxypropan-2-yl)-7-methylquinolin-6-yl)acetic acid], the EC50 was 0.186 µM. `Cc1cc2nc(OCc3ccc(C(N)=O)cc3)ccc2c(-c2ccc3c4c(ccnc24)CCO3)c1[C@H](OC(C)(C)C)C(=O)O` (atropisomer, axis not shown) [Example 8, (S)-2-tert-Butoxy-2-((R)-2-(4-carbamoylbenzyloxy)-5-(2,3-dihydropyrano[4,3,2-de]quinolin-7-yl)-7-methylquinolin-6-yl)acetic acid] was tested, and the EC50 was 0.0368 µM. In the case of `Cc1cc2c(ccc(=O)n2Cc2cccc(C(F)(F)F)c2)c(-c2ccc3c4c(ccnc24)CCO3)c1[C@H](OC(C)(C)C)C(=O)O` (atropisomer, axis not shown) [Example 5, (S)-2-tert-Butoxy-2-((R)-5-(2,3-dihydropyrano[4,3,2-de]quinolin-7-yl)-7-methyl-2-oxo-1-(3-(trifluoromethyl)benzyl)-1,2-dihydroquinolin-6-yl)acetic acid], the EC50 is reported as 0.0307 µM. `Cc1cc2c(ccc(=O)n2Cc2cc(C(F)(F)F)cc(C(F)(F)F)c2)c(-c2ccc3c4c(ccnc24)CCO3)c1[C@H](OC(C)(C)C)C(=O)O` (atropisomer, axis not shown) [Example 20, (S)-2-((R)-1-(3,5-Bis(trifluoromethyl)benzyl)-5-(2,3-dihydropyrano[4,3,2-de]quinolin-7-yl)-7-methyl-2-oxo-1,2-dihydroquinolin-6-yl)-2-tert-butoxyacetic acid] was tested, and the EC50 was 0.09 µM. `Cc1cc2nc(OCc3cccc(OC(F)(F)F)c3)ccc2c(-c2ccc3c4c(ccnc24)CCO3)c1[C@H](OC(C)(C)C)C(=O)O` (atropisomer, axis not shown) [Example 14, (S)-2-tert-Butoxy-2-((R)-5-(2,3-dihydropyrano[4,3,2-de]quinolin-7-yl)-7-methyl-2-(3-(trifluoromethoxy)benzyloxy)quinolin-6-yl)acetic acid] was tested, and the EC50 was 0.217 µM. For `Cc1cc2nc(OCc3ccc(S(N)(=O)=O)cc3)ccc2c(-c2ccc3c4c(ccnc24)CCO3)c1[C@H](OC(C)(C)C)C(=O)O` (atropisomer, axis not shown) [Example 17, (S)-2-tert-Butoxy-2-((R)-5-(2,3-dihydropyrano[4,3,2-de]quinolin-7-yl)-7-methyl-2-(4-sulfamoylbenzyloxy)quinolin-6-yl)acetic acid], the EC50 was 0.084 µM. `CNc1ccc2c(-c3ccc4c5c(ccnc35)CCO4)c([C@H](OC(C)(C)C)C(=O)O)c(C)cc2n1` (atropisomer, axis not shown) [Example 46, (S)-2-tert-Butoxy-2-((R)-5-(2,3-dihydropyrano[4,3,2-de]quinolin-7-yl)-7-methyl-2-(methylamino)quinolin-6-yl)acetic acid] showed an EC50 of 0.265 µM. `Cc1cc2c(ccc(=O)n2-c2cccc(S(C)(=O)=O)c2)c(-c2ccc3c4c(ccnc24)CCO3)c1[C@H](OC(C)(C)C)C(=O)O` (atropisomer, axis not shown) [Example 37, (S)-2-tert-Butoxy-2-((R)-5-(2,3-dihydropyrano[4,3,2-de]quinolin-7-yl)-7-methyl-1-(3-(methylsulfonyl)phenyl)-2-oxo-1,2-dihydroquinolin-6-yl)acetic acid] gave an EC50 of 8.43 µM. In the case of `Cc1cc2c(ccc(=O)n2Cc2cncc(C(F)(F)F)c2)c(-c2ccc3c4c(ccnc24)CCO3)c1[C@H](OC(C)(C)C)C(=O)O` (atropisomer, axis not shown) [Example 31, (S)-2-tert-Butoxy-2-((R)-5-(2,3-dihydropyrano[4,3,2-de]quinolin-7-yl)-7-methyl-2-oxo-1-((5-(trifluoromethyl)pyridin-3-yl)methyl)-1,2-dihydroquinolin-6-yl)acetic acid], the EC50 is reported as 0.0682 µM. With `Cc1cc2c(ccc(=O)n2Cc2cccc(C(F)(F)F)c2)c(-c2ccc(Cl)cc2)c1[C@H](OC(C)(C)C)C(=O)O` [Example 7, (S)-2-tert-Butoxy-2-(5-(4-chlorophenyl)-7-methyl-2-oxo-1-(3-(trifluoromethyl)benzyl)-1,2-dihydroquinolin-6-yl)acetic acid] the EC50 was 0.187 µM. `Cc1cc2c(ccc(=O)n2Cc2cccc3c2cnn3C)c(-c2ccc3c4c(ccnc24)CCO3)c1[C@H](OC(C)(C)C)C(=O)O` (atropisomer, axis not shown) [Example 28, (S)-2-tert-Butoxy-2-((R)-5-(2,3-dihydropyrano[4,3,2-de]quinolin-7-yl)-7-methyl-1-((1-methyl-1H-indazol-4-yl)methyl)-2-oxo-1,2-dihydroquinolin-6-yl)acetic acid] showed an EC50 of 0.0458 µM. With `Cc1cc2nc(C(C)F)ccc2c(-c2ccc3c4c(ccnc24)CCO3)c1[C@H](OC(C)(C)C)C(=O)O` (stereo partly drawn) [Example 53, (2S)-2-tert-Butoxy-2-((5R)-5-(2,3-dihydropyrano[4,3,2-de]quinolin-7-yl)-2-(1-fluoroethyl)-7-methylquinolin-6-yl)acetic acid] the EC50 was 0.0221 µM. Compound `Cc1cc2nc(OCc3ccccc3)ccc2c(-c2ccc3c4c(ccnc24)CCO3)c1[C@H](OC(C)(C)C)C(=O)O` (atropisomer, axis not shown) [Example 12, (S)-2-((R)-2-(Benzyloxy)-5-(2,3-dihydropyrano[4,3,2-de]quinolin-7-yl)-7-methylquinolin-6-yl)-2-tert-butoxyacetic acid] has an EC50 of 0.05 µM. For `Cc1cc2c(ccc(=O)n2Cc2cncnc2)c(-c2ccc3c4c(ccnc24)CCO3)c1[C@H](OC(C)(C)C)C(=O)O` (atropisomer, axis not shown) [Example 25, (S)-2-tert-butoxy-2-((R)-5-(2,3-dihydropyrano[4,3,2-de]quinolin-7-yl)-7-methyl-2-oxo-1-(pyrimidin-5-ylmethyl)-1,2-dihydroquinolin-6-yl)acetic acid], the EC50 was 0.472 µM. `Cc1cc2c(ccc(=O)n2CC2CC2)c(-c2ccc3c4c(ccnc24)CCO3)c1[C@H](OC(C)(C)C)C(=O)O` (atropisomer, axis not shown) [Example 1, (S)-2-tert-Butoxy-2-((R)-1-(cyclopropylmethyl)-5-(2,3-dihydropyrano[4,3,2-de]quinolin-7-yl)-7-methyl-2-oxo-1,2-dihydroquinolin-6-yl)acetic acid] gave an EC50 of 0.409 µM.

Same assay, conditions: MT-4 cells infected with HIV-IIIb, 5 days of incubation, CellTiter-Glo readout
For `CCC(C)(CC)O[C@H](C(=O)O)c1c(C)cc2nc(C)ccc2c1-c1ccc2c3c(ccnc13)CCO2` (atropisomer, axis not shown) [Example 42, (S)-2-((S)-5-(2,3-Dihydropyrano[4,3,2-de]quinolin-7-yl)-2,7-dimethylquinolin-6-yl)-2-(3-methylpentan-3-yloxy)acetic acid], the EC50 was 5.63 µM.
